# Test results published in publication PMC4627230, “Identification of TAX2 peptide as a new unpredicted anti-cancer agent” (Oncotarget, 2015).
# Assays:
# [1] = test system: CD36-containing complex / activated VEGFR2; assay: CD36 co-immunoprecipitation of activated VEGFR2; type: cell-based, human; details: HUVECs, 100 μM for 12 h, then 30 ng/mL VEGF 5 min
# Description: Figure 3 Anti-angiogenic properties of TAX2 are mediated by TSP-1 binding to CD36 A. Expression of CD36 in HUVECs was assessed by immunoblotting (left panel) and immunofluorescence staining (right panel, red). Nuclei were counterstained with DAPI (blue). B. HUVECs were incubated with 100 μM cyclic TAX2 or in control conditions for 24 h. Then, CD36-containing complexes were co-immunoprecipitated from whole cell extracts (non-specific IgGs were used as a negative control for immunoprecipitation). Immunocomplexes were submitted to SDS-PAGE and immunoblotted (IB) by using specific antibodies for TSP-1 and CD36. The presence of TSP-1 in immunocomplexes was quantified by densitometric analysis relative to immunoprecipitated CD36. C. VEGFR2 phosphorylation induced by VEGF in the presence of TAX2. After overnight serum starvation, HUVECs were pre-treated with 100 μM TAX2 or control for 12 h, then incubated with 30 ng/mL VEGF for 5 min. […] Data are expressed as the mean ± SE (n = 3; *p < 0.05, ANOVA). […] Quantification of total tube-like network length was realized using ImageJ software E. Branching points F. and nodal structures G. were numbered using the S.CORE web-based system. Data are expressed as the mean ± SE (n = 3; *p < 0.05, ANOVA). […]
# TSP-1 binding to FGF-2 = assay: Co-immunoprecipitation TSP-1 with FGF-2; type: cell-based, human; details: HUVECs, 100 μM; conditioned media
# Description: Protein lysates prepared in ice-cold lysis buffer or conditioned media were subjected to immunoprecipitation assay using the Pierce Co-IP kit (Thermo Fisher Scientific) according to the manufacturer's protocol. 10 μg of antibody (anti CD47, anti-CD36, anti-FGF2, anti-VEGF, anti-β1 integrin and anti-LRP1 heavy chain) or non-specific IgGs were incubated with the delivered resin and covalently coupled. The antibody-coupled resin was incubated with whole HUVEC protein lysate overnight at 4°C under gentle agitation (no cross-linker was used to stabilize protein complexes before HUVEC lysis). Then the resin was washed and the protein complexes bound to the antibody were eluted. Immunoprecipitated protein complexes were solubilized under denaturing and reducing conditions, heated to 100°C for 5 min and analyzed by immunoblotting as described above. […]
# receptors. HUVECs were treated with TAX2 (100 μM) or scrambled peptide (Ctrl, 100 μM). FGF-2 and VEGF were immunoprecipitated from conditioned media using anti-FGF-2 (clone C-18) and anti-VEGF (clone C-1), respectively. β1 integrin and LRP-1 were immunoprecipitated from total protein lysates using anti-β1 integrin (clone BV7) and anti-LRP-1 heavy chain (clone 8G1), respectively. […] Histogram represents the quantification of relative ligand-bound TSP-1 under TAX2 treatment as compared to control. […]
sequence,measurement,setting,value
"CEVSQLLKGDAC (disulfide) [TAX2, CD47-derived cyclic disulfide dodecapeptide …]",association of activated VEGFR2 to a CD36-containing complex,[1],association of activated VEGFR2 to a CD36-containing complex
same,TSP-1 binding to FGF-2,TSP-1 binding to FGF-2,does not affect
